PubChem BioAssay AID256 (DTP/NCI, 2004)
Values joined by “and” are separate entries in the source; they are usually repeats but may differ in a detail not shown here. Identical values can stand only once. Toxic doses and inconclusive results are not listed.

System: CD2F1 mice, L1210 leukemia ip, survival T/C
Experiment: NCI In Vivo Anticancer Drug Screen. Data for tumor model L1210 Leukemia (intraperitoneal) in CD2F1 (CDF1) mice
Conditions: higher = longer survival
In short: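 Antitumor effect is scored in animals hosting a serially transplanted tumor. Values compare compound-dosed animals against vehicle-only controls as a simple quotient.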

[1] = endpoint: mean survival time, dose: 100.0 mg/kg/injection, schedule: Q01DX001 (ip), vehicle: saline with Tween-80
[2] = endpoint: mean survival time, dose: 100.0 mg/kg/injection, schedule: Q01DX009 (ip), vehicle: saline with Tween-80
[3] = endpoint: mean survival time, dose: 200.0 mg/kg/injection, schedule: Q01DX001 (ip), vehicle: saline with Tween-80
[4] = endpoint: mean survival time, dose: 200.0 mg/kg/injection, schedule: Q01DX009 (ip), vehicle: saline with Tween-80
[5] = endpoint: mean survival time, dose: 400.0 mg/kg/injection, schedule: Q01DX001 (ip), vehicle: saline with Tween-80
[6] = endpoint: mean survival time, dose: 400.0 mg/kg/injection, schedule: Q01DX009 (ip), vehicle: saline with Tween-80
[7] = endpoint: mean survival time, dose: 25.0 mg/kg/injection, schedule: Q04DX002 (ip), vehicle: saline with Tween-80
[8] = endpoint: mean survival time, dose: 50.0 mg/kg/injection, schedule: Q04DX002 (ip), vehicle: saline with Tween-80
[9] = endpoint: mean survival time, dose: 100.0 mg/kg/injection, schedule: Q04DX002 (ip), vehicle: saline with Tween-80
[10] = endpoint: mean survival time, dose: 200.0 mg/kg/injection, schedule: Q04DX002 (ip), vehicle: saline with Tween-80
[11] = endpoint: mean survival time, dose: 75.0 mg/kg/injection, schedule: Q04DX003 (ip), vehicle: saline
[12] = endpoint: mean survival time, dose: 100.0 mg/kg/injection, schedule: Q04DX003 (ip), vehicle: saline with Tween-80
[13] = endpoint: mean survival time, dose: 200.0 mg/kg/injection, schedule: Q04DX003 (ip), vehicle: saline with Tween-80
[14] = endpoint: mean survival time, dose: 400.0 mg/kg/injection, schedule: Q04DX003 (ip), vehicle: saline with Tween-80
[15] = endpoint: mean survival time, dose: 12.5 mg/kg/injection, schedule: Q04DX003 (ip), vehicle: saline with Tween-80
[16] = endpoint: mean survival time, dose: 25.0 mg/kg/injection, schedule: Q04DX003 (ip), vehicle: saline with Tween-80
[17] = endpoint: mean survival time, dose: 25.0 mg/kg/injection, schedule: Q01DX009 (ip), vehicle: saline with Tween-80
[18] = endpoint: mean survival time, dose: 50.0 mg/kg/injection, schedule: Q01DX009 (ip), vehicle: saline with Tween-80

In the case of `COC(=O)C1C2CC(OS(=O)(=O)c3ccc(C)cc3)C(C2)C1C(=O)OC` (centres undefined), the T/C [1] is reported as 93 % of control, the T/C [2] is reported as 98 % of control and the T/C [3] is reported as 95 % of control. The T/C [4] was 91 % of control, the T/C [5] was 92 % of control and the T/C [6] was 95 % of control.

For `CCC(=O)n1nc(-c2ccccc2)c2ccccc21`, the T/C [7] was 100 % of control, the T/C [8] was 88 % of control and the T/C [9] was 96 % of control. The T/C [10] was 103 % of control.

With `C=C[Si](c1ccccc1)(c1ccccc1)c1ccccc1` the T/C [11] was 95 % of control, the T/C (endpoint: mean survival time, dose: 150.0 mg/kg/injection, schedule: Q04DX003 (ip), vehicle: saline) was 97 % of control and the T/C (endpoint: mean survival time, dose: 300.0 mg/kg/injection, schedule: Q04DX003 (ip), vehicle: saline) was 97 % of control.

With `CSc1cc(NC(C)=O)nc2nc[nH]c12` the T/C (endpoint: mean survival time, dose: 100.0 mg/kg/injection, schedule: Q01DX001 (ip), vehicle: Klucel (hydroxypropylcellulose) (HPC)) was 98 % of control and the T/C (endpoint: mean survival time, dose: 200.0 mg/kg/injection, schedule: Q01DX001 (ip), vehicle: Klucel (hydroxypropylcellulose) (HPC)) was 97 % of control.

With `CC(=Nc1ccccc1)c1ccc2ccccc2c1` the T/C [12] was 98 % of control, the T/C [13] was 93 % of control and the T/C [14] was 97 % of control.

`[Cl][Pt+2][Cl].[NH-]CC1(C[NH-])CCCC1` was tested, and the T/C (endpoint: mean survival time, dose: 1.56 mg/kg/injection, schedule: Q04DX003 (ip), vehicle: saline) was 122 % of control, the T/C (endpoint: mean survival time, dose: 3.12 mg/kg/injection, schedule: Q04DX003 (ip), vehicle: saline) was 152 % of control and the T/C (endpoint: mean survival time, dose: 6.25 mg/kg/injection, schedule: Q04DX003 (ip), vehicle: saline) was 197 % of control. For the same molecule, the T/C [15] was 160 % of control, the T/C (endpoint: mean survival time, dose: 12.5 mg/kg/injection, schedule: Q04DX003 (ip), vehicle: saline) was 260 % of control and the T/C [16] was 98 % of control. The T/C (endpoint: mean survival time, dose: 25.0 mg/kg/injection, schedule: Q04DX003 (ip), vehicle: saline) was 114 % of control, the T/C (endpoint: median survival time, dose: 1.0 mg/kg/injection, schedule: Q01DX009 (ip), vehicle: saline) was 232 % of control and the T/C (endpoint: median survival time, dose: 2.0 mg/kg/injection, schedule: Q01DX009 (ip), vehicle: saline) was 175 % of control. The T/C (endpoint: median survival time, dose: 4.0 mg/kg/injection, schedule: Q01DX001 (ip), vehicle: saline) was 201 % of control, the T/C (endpoint: median survival time, dose: 4.0 mg/kg/injection, schedule: Q01DX009 (ip), vehicle: saline) was 101 % of control and the T/C (endpoint: median survival time, dose: 8.0 mg/kg/injection, schedule: Q01DX001 (ip), vehicle: saline) was 200 % of control. For the same molecule, the T/C (endpoint: median survival time, dose: 8.0 mg/kg/injection, schedule: Q01DX009 (ip), vehicle: saline) was 97 % of control, the T/C (endpoint: median survival time, dose: 12.0 mg/kg/injection, schedule: Q01DX001 (ip), vehicle: saline) was 104 % of control and the T/C (endpoint: median survival time, dose: 18.0 mg/kg/injection, schedule: Q01DX001 (ip), vehicle: saline) was 97 % of control.

For `N=c1c(C(=O)OCc2ccccc2)ncc(CCl)n1O`, the T/C (endpoint: median survival time, dose: 25.0 mg/kg/injection, schedule: Q01DX009 (ip), vehicle: saline with Tween-80) was 100 % of control, the T/C (endpoint: median survival time, dose: 50.0 mg/kg/injection, schedule: Q01DX009 (ip), vehicle: saline with Tween-80) was 101 % of control and 102 % of control and the T/C (endpoint: median survival time, dose: 100.0 mg/kg/injection, schedule: Q01DX009 (ip), vehicle: saline with Tween-80) was 97 % of control and 109 % of control. For the same molecule, the T/C (endpoint: median survival time, dose: 200.0 mg/kg/injection, schedule: Q01DX009 (ip), vehicle: saline with Tween-80) was 93 % of control and 97 % of control and the T/C (endpoint: median survival time, dose: 400.0 mg/kg/injection, schedule: Q01DX009 (ip), vehicle: saline with Tween-80) was 99 % of control and 100 % of control.

For `O=C(O)c1ccccc1C(=O)Nc1cc(C(F)(F)F)ccc1Cl`, the T/C [2] was 104 % of control, the T/C [12] was 105 % of control and the T/C [4] was 96 % of control. For the same molecule, the T/C [13] was 105 % of control and the T/C [14] was 111 % of control.

With `CNC(=O)Nc1nnnc2ccccc12` the T/C [12] was 95 % of control.

In the case of `CCN(CC)CCCC(C)N` (centres undefined), the T/C (endpoint: mean survival time, dose: 50.0 mg/kg/injection, schedule: Q04DX003 (ip), vehicle: saline) is reported as 101 % of control.

With `O=C(C[n+]1cccc(C(=O)c2ccccc2)c1)c1ccccc1` the T/C (endpoint: mean survival time, dose: 9.4 mg/kg/injection, schedule: Q01DX009 (ip), vehicle: saline) was 94 % of control, the T/C (endpoint: mean survival time, dose: 18.8 mg/kg/injection, schedule: Q01DX009 (ip), vehicle: saline) was 94 % of control and the T/C (endpoint: mean survival time, dose: 37.5 mg/kg/injection, schedule: Q01DX009 (ip), vehicle: saline) was 93 % of control. For the same molecule, the T/C (endpoint: mean survival time, dose: 37.5 mg/kg/injection, schedule: Q04DX003 (ip), vehicle: saline) was 96 % of control, the T/C (endpoint: mean survival time, dose: 75.0 mg/kg/injection, schedule: Q01DX001 (ip), vehicle: saline) was 100 % of control and the T/C [11] was 94 % of control. The T/C (endpoint: mean survival time, dose: 150.0 mg/kg/injection, schedule: Q01DX001 (ip), vehicle: saline) was 97 % of control.

With `CCOC(=O)C(N)Cc1ccc(OC)c(N(CCCl)CCCl)c1` (centres undefined) the T/C (endpoint: mean survival time, dose: 1.1 mg/kg/injection, schedule: Q01DX001 (ip), vehicle: carboxymethylcellulose (CMC)) was 122 % of control and the T/C (endpoint: mean survival time, dose: 1.7 mg/kg/injection, schedule: Q01DX001 (ip), vehicle: carboxymethylcellulose (CMC)) was 120 % of control.

For `c1ccc(-c2csc3c4ccccc4c4ccccc4[n+]23)cc1`, the T/C (endpoint: mean survival time, dose: 0.5 mg/kg/injection, schedule: Q01DX009 (ip), vehicle: saline) was 104 % of control, the T/C (endpoint: mean survival time, dose: 1.0 mg/kg/injection, schedule: Q01DX009 (ip), vehicle: saline) was 112 % of control and the T/C (endpoint: mean survival time, dose: 2.0 mg/kg/injection, schedule: Q01DX009 (ip), vehicle: saline) was 112 % of control. The T/C (endpoint: mean survival time, dose: 4.0 mg/kg/injection, schedule: Q01DX009 (ip), vehicle: saline) was 106 % of control and the T/C (endpoint: mean survival time, dose: 8.0 mg/kg/injection, schedule: Q01DX009 (ip), vehicle: saline) was 101 % of control.

`COc1ccc2c(c1OC(C)=O)-c1cc(OC(C)=O)cc3c1C(C2)NCC3` (centres undefined) was tested, and the T/C (endpoint: mean survival time, dose: 3.13 mg/kg/injection, schedule: Q04DX003 (ip), vehicle: saline with Tween-80) was 96 % of control, the T/C (endpoint: mean survival time, dose: 6.25 mg/kg/injection, schedule: Q04DX003 (ip), vehicle: saline with Tween-80) was 94 % of control and the T/C [15] was 94 % of control. The T/C [16] was 94 % of control.

For `O=C(Nc1ccc(C2=NCCN2)cc1)Nc1cccc(NC(=O)Nc2ccc(C3=NCCN3)cc2)c1`, the T/C (endpoint: mean survival time, dose: 1.8 mg/kg/injection, schedule: Q01DX008 (iv), vehicle: other) was 103 % of control and the T/C (endpoint: mean survival time, dose: 3.75 mg/kg/injection, schedule: Q01DX008 (iv), vehicle: other) was 103 % of control.

With `C[n+]1cccc(C(=S)[S-])c1` the T/C [17] was 102 % of control, the T/C [18] was 101 % of control and the T/C [12] was 101 % of control.

For `COc1ccc(NC(=O)Oc2ccc(C3CCCCC3)cc2)cc1`, the T/C [17] was 97 % of control, the T/C [7] was 104 % of control and the T/C [18] was 93 % of control. The T/C [8] was 104 % of control, the T/C [2] was 89 % of control and the T/C [9] was 101 % of control. For the same molecule, the T/C [10] was 108 % of control.

In the case of `NC(=S)c1csc(CCNC(=O)c2ccccc2)n1`, the T/C [1] is reported as 100 % of control, the T/C [2] is reported as 98 % of control and the T/C (endpoint: mean survival time, dose: 100.0 mg/kg/injection, schedule: Q04DX003 (ip), vehicle: saline) is reported as 96 % of control. For the same molecule, the T/C [3] was 97 % of control, the T/C [4] was 98 % of control and the T/C (endpoint: mean survival time, dose: 200.0 mg/kg/injection, schedule: Q04DX003 (ip), vehicle: saline) was 89 % of control. For the same molecule, the T/C [5] was 97 % of control, the T/C [6] was 100 % of control and the T/C (endpoint: mean survival time, dose: 400.0 mg/kg/injection, schedule: Q04DX003 (ip), vehicle: saline) was 93 % of control.

With `CSC(=S)N(C)/N=C/c1ccccc1O` the T/C [2] was 97 % of control, the T/C [12] was 102 % of control and the T/C [4] was 93 % of control. The T/C [13] was 92 % of control, the T/C [6] was 92 % of control and the T/C [14] was 100 % of control.

For `CC(c1ccc([N+](=O)[O-])cc1)C(O)c1ccccc1` (centres undefined), the T/C [12] was 111 % of control, the T/C [13] was 103 % of control and the T/C [14] was 102 % of control.

In the case of `CCOC(=O)c1cnn(CCO)c1N`, the T/C (endpoint: mean survival time, dose: 50.0 mg/kg/injection, schedule: Q04DX003 (ip), vehicle: water) is reported as 100 % of control, the T/C (endpoint: mean survival time, dose: 100.0 mg/kg/injection, schedule: Q04DX003 (ip), vehicle: water) is reported as 97 % of control and the T/C (endpoint: mean survival time, dose: 200.0 mg/kg/injection, schedule: Q04DX003 (ip), vehicle: water) is reported as 101 % of control. The T/C (endpoint: mean survival time, dose: 400.0 mg/kg/injection, schedule: Q04DX003 (ip), vehicle: water) was 103 % of control and 107 % of control, the T/C (endpoint: mean survival time, dose: 600.0 mg/kg/injection, schedule: Q04DX003 (ip), vehicle: water) was 101 % of control and the T/C (endpoint: mean survival time, dose: 800.0 mg/kg/injection, schedule: Q04DX003 (ip), vehicle: water) was 105 % of control.
